In US20240308985A1 (Psy Therapeutics, Inc., priority 2021, published 2024):

Each compound was assayed against Monoacylglycerol Lipase (MAGL) (Homo sapiens (Human), UniProt Q99685) (assay: MAGL inhibition potency (IC50) assay with 4NPA substrate). Conditions: Method 1: Reaction Biology MAGL enzyme, 6 nM; read-out: MAGL Potency (Detection Method).
Type: biochemical
From the text: The potency of certain compounds for inhibiting MAGL were obtained using the following assays. The monoacylglycerol lipase inhibitor screening assay kit from Cayman Chemical was used to measure the MAGL potency for the compounds in Table 6 and Table 7. Cayman's Monoacylglycerol Lipase Inhibitor Screening Assay provides a method for screening human MAGL inhibitors. MAGL hydrolyzes 4-nitrophenylacetate resulting in a yellow product, 4-nitrophenol, with an absorbance of 405-412 nm. MAGL Inhibition was measured by the following assay. Monoacylglycerol Lipase (MAGL) inhibition was measured using recombinant MAGL enzyme (aa 2-303 RBC, internal preparation) and the substrate 4-Nitrophenyl acetate (4NPA) (Sigma-Aldrich, N8130). Hydrolysis of the substrate in the presence of the enzyme was measured by absorbance at 405 nm. 10 μL of assay buffer (10 mM Tris pH 7.5, 1 mM EDTA, 0.9% DMSO) was added to a black 384-well non-binding plate with clear bottom (Greiner, 781906) for each reaction. […] DMSO control wells were included for reference. A 10.8 nM (1.8×) MAGL mix in assay buffer was prepared, with 25 μL added to each reaction well, for a final assay concentration of 6 nM. No enzyme wells received 25 μL of buffer. Plate was incubated at room temperature for 30 minutes. 35 mM solution of 4NPA in methanol was prepared daily. A 4.5×4NPA substrate solution was prepared in assay buffer and 10 μL was added to each reaction well, for a final assay concentration of 0.25 mM. Plate was spun for 1 minute at 1000 rpm before measuring absorbance using a CLARIOstar plate reader (BMG Labtech). A kinetic reading at 405 nm was done every minute for 30 minutes. Data was analyzed using the linear slope of the reaction progress curve and the average of the no-enzyme wells (background) was subtracted from the data. The background-subtracted slope data was converted to % activity using the average of wells with enzyme and DMSO vehicle. IC50s were calculated using GraphPad software (Sigmoidal dose response, variable slope equation). […] Table 8 provides potency measurements of MAGL inhibition measured using the Potency Assay of Example 22 above, with the following modifications described in Table C. [table]

Chain of Monoacylglycerol Lipase (MAGL) (Q99685 2-303): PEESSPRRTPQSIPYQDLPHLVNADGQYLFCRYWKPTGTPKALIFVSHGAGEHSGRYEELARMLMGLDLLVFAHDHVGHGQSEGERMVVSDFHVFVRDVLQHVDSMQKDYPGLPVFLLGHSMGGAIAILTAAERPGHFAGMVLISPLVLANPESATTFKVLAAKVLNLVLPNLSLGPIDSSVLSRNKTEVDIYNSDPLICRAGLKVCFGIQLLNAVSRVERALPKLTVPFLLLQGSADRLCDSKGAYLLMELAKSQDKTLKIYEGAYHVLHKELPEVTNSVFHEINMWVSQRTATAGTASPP

Row | IC50 | SMILES
1 | 50 to 150 nM | Cc1cc(C2CC3(C2)CN(C(=O)c2ccc(F)c(O)c2)C3)n(-c2ccccc2C)n1 [Compound 141, (4-fluoro-3-hydroxyphenyl)(6-(3-methyl-1-(o-tolyl)-1H-pyrazol-5-yl)-2-azaspiro[3.3]heptan-2-yl)methanone]

Same assay, conditions: Method 2: Cayman Chemical MAGL enzyme, 10 nM; read-out: MAGL Potency (Detection Method)

Row | IC50 | SMILES
2 | 50 to 150 nM | Cc1cc(C2CC3(C2)CN(C(=O)c2cc(O)ccc2Cl)C3)n(-c2ccccc2C)n1 [Compound 140, (2-chloro-5-hydroxyphenyl) (6-(3-methyl-1-(o-tolyl)-1H-pyrazol-5-yl)-2-azaspiro [3.3]heptan-2-yl) methanone]
3 | 150 to 500 nM | Cc1cc(C2CC3(C2)CN(C(=O)c2ccc(F)c(O)c2)C3)n(-c2ccccc2C)n1 [Compound 141, (4-fluoro-3-hydroxyphenyl)(6-(3-methyl-1-(o-tolyl)-1H-pyrazol-5-yl)-2-azaspiro[3.3]heptan-2-yl)methanone]
4 | 500 to 1000 nM | COc1cc(F)ccc1C(=O)N1CC2(CC(c3cc(C)nn3-c3ccccc3C)C2)C1 [Compound 142, (4-fluoro-2-methoxyphenyl)(6-(3-methyl-1-(o-tolyl)-1H-pyrazol-5-yl)-2-azaspiro[3.3]heptan-2-yl)methanone]
5 | 1000 to 5100 nM | COc1ccccc1C(=O)N1CC2(CC(c3cc(C)nn3-c3ccccc3C)C2)C1 [Compound 143, (2-methoxyphenyl)(6-(3-methyl-1-(o-tolyl)-1H-pyrazol-5-yl)-2-azaspiro[3.3]heptan-2-yl)methanone]
6 | 1000 to 5100 nM | CCOc1ccccc1C(=O)N1CC2(CC(c3cc(C)nn3-c3ccccc3C)C2)C1 [Compound 145, (2-ethoxyphenyl)(6-(3-methyl-1-(o-tolyl)-1H-pyrazol-5-yl)-2-azaspiro[3.3]heptan-2-yl)methanone]

Continued, compound first:

Row | SMILES | IC50
7 | Cc1cc(C2=CC3(C2)CN(C(=O)c2cc(O)ccc2F)C3)n(-c2ccccc2C)n1 [Compound 120, (2-fluoro-5-hydroxyphenyl)(6-(3-methyl-1-(o-tolyl)-1H-pyrazol-5-yl)-2-azaspiro[3.3]hept-5-en-2-yl)methanone] | 150 to 500 nM
8 | CCOc1cc(F)ccc1C(=O)N1CC2(CC(c3cc(C)nn3-c3ccccc3C)C2)C1 [Compound 146, (2-ethoxy-4-fluorophenyl){6-[3-methyl-1-(o-tolyl)-5-pyrazolyl]-2-aza-2-spiro[3.3]heptyl}methanone] | 150 to 500 nM
9 | Cc1cc(C2CC3(C2)CN(C(=O)c2ccc(F)cc2OC(C)C)C3)n(-c2ccccc2C)n1 [Compound 177, (4-fluoro-2-isopropoxyphenyl)(6-(3-methyl-1-(o-tolyl)-1H-pyrazol-5-yl)-2-azaspiro[3.3]heptan-2-yl)methanone] | 50 to 150 nM
10 | Cc1ccccc1NC(=O)C1CC2(C1)CN(C(=O)c1cc(O)ccc1F)C2 [Compound 186, N-o-tolyl-2-(2-fluoro-5-hydroxybenzoyl)-2-aza-6-spiro[3.3]heptanecarboxamide] | 1000 to 5100 nM
11 | CCOc1cc(F)ccc1C(=O)N1CC2(CC(C(=O)N(C)c3ccccc3C)C2)C1 [Compound 187, 2-(2-Ethoxy-4-fluorobenzoyl)-N-Methyl-N-(o-tolyl)-2-azaspiro [3.3] heptane-6-carboxamide] | 150 to 500 nM

Same assay, conditions: Method 2: Cayman Chemical MAGL enzyme, 10 nM; read-out: Potency (MAGL inhibition)

Row | IC50 | SMILES
12 | > 10000 nM | Cc1cc(C2CC3(C2)CN(C(=N)c2cc(O)ccc2F)C3)n(-c2ccccc2C)n1 [Compound 144]
13 | > 10000 nM | COc1cc(F)ccc1CN1CC2(CC(c3cc(C)nn3-c3ccccc3C)C2)C1 [Compound 149]
14 | > 10000 nM | Cc1cc(C2CC3(C2)CN(C2CCOc4ccccc42)C3)n(-c2ccccc2C)n1 (stereo not shown) [Compound 152]
15 | > 10000 nM | Cc1cc(C2CC3(C2)CN([C@@H]2CCOc4ccccc42)C3)n(-c2ccccc2C)n1 [Compound 153]
16 | > 10000 nM | Cc1cc(C2CC3(C2)CN([C@H]2COc4ccccc42)C3)n(-c2ccccc2C)n1 [Compound 154]
17 | > 10000 nM | Cc1cc(C2CC3(C2)CN([C@@H]2COc4ccccc42)C3)n(-c2ccccc2C)n1 [Compound 155]
18 | > 10000 nM | Cc1cc(C2CC3(C2)CN(C(=O)c2ccoc2)C3)n(-c2ccccc2C)n1 [Compound 179]
19 | > 10000 nM | Cc1cc(C2CC3(C2)CN(C(=O)c2cccn2C)C3)n(-c2ccccc2C)n1 [Compound 181]
20 | > 10000 nM | Cc1cc(C2CC3(C2)CN(C(=O)c2ccn(C)c2)C3)n(-c2ccccc2C)n1 [Compound 182]
21 | > 10000 nM | Cc1cc(C2CC3(C2)CN(C(=O)c2ccc[nH]2)C3)n(-c2ccccc2C)n1 [Compound 183]
22 | > 10000 nM | Cc1cc(C2CC3(C2)CN(C(=O)c2cc[nH]c2)C3)n(-c2ccccc2C)n1 [Compound 184]
23 | > 10000 nM | CCOc1cc(F)ccc1C(=O)N1CC2(CC(C(=O)Nc3ccccc3C)C2)C1 [Compound 188]

Same assay, conditions: Method 3: Reaction Biology MAGL enzyme, 10 nM; read-out: MAGL Potency (Detection Method)

Row | IC50 | SMILES
24 | < 50 nM | CCOc1cc(F)ccc1C(=O)N1CC2(CC(c3cc(C)nn3-c3ccccc3C)C2)C1 [Compound 146, (2-ethoxy-4-fluorophenyl){6-[3-methyl-1-(o-tolyl)-5-pyrazolyl]-2-aza-2-spiro[3.3]heptyl}methanone]

Same assay, conditions: Method 4: Cayman Chemical MAGL enzyme, 15 nM; read-out: MAGL Potency (Detection Method)

Row | IC50 | SMILES
25 | 150 to 500 nM | CCOc1cc(F)ccc1C(=O)N1CC2(CC(C(=O)N(CC)c3ccccc3C)C2)C1 [Compound 203, N-ethyl-N-o-tolyl-2-(2-ethoxy-4-fluorobenzoyl)-2-aza-6-spiro[3.3]heptanecarboxamide]
26 | 500 to 1000 nM | CCOc1cc(F)ccc1C(=O)N1CC2(CC(C(=O)N(C)c3ccccc3C(C)C)C2)C1 [Compound 205, N-o-cumenyl-N-methyl-2-(2-ethoxy-4-fluorobenzoyl)-2-aza-6-spiro[3.3]heptanccarboxamide]
27 | 1000 to 5100 nM | CCOc1cc(F)ccc1C(=O)N1CC2(CC(C(=O)N(C)c3ccccc3Cl)C2)C1 [Compound 206, N-o-chlorophenyl-N-methyl-2-(2-ethoxy-4-fluorobenzoyl)-2-aza-6-spiro[3.3]heptanecarboxamide]

Same assay, conditions: Method 4: Cayman Chemical MAGL enzyme, 15 nM; read-out: Potency (MAGL inhibition)

Row | IC50 | SMILES
28 | > 10000 nM | CCOc1cc(F)ccc1C(=O)N1CC2(CC(C(=O)N(C)c3cccnc3C)C2)C1 [Compound 198]

Same assay, conditions: Method 6: Reaction Biology MAGL enzyme, 6 nM; read-out: MAGL Potency (Detection Method)

Row | IC50 | SMILES
29 | 50 to 150 nM | Cc1cnn(C2CC3(C2)CN(C(=O)c2cc(O)ccc2F)C3)c1-c1ccccc1C(F)(F)F (atropisomer, axis not shown; (M)) [Compound 410, 4-fluoro-3-{6-[(4M)-4-methyl-5-[2-(trifluoromethyl)phenyl]-1H-pyrazol-1-yl]-2-azaspiro[3.3]heptane-2-carbonyl}phenol]

Same assay, conditions: Method 14: Reaction Biology MAGL enzyme, 6 nM; read-out: MAGL Potency (Detection Method)

Row | IC50 | SMILES
30 | < 50 nM | Cc1cc(C2CC3(C2)CN(C(=O)c2cc(O)ccc2F)C3)n(-c2cc(F)ccc2C)n1 [Compound 365, (2-fluoro-5-hydroxyphenyl){6-[1-(5-fluoro-2-tolyl)-3-methyl-5-pyrazolyl]-2-aza-2-spiro[3.3]heptyl}methanone]
31 | < 50 nM | Cc1cc(C2CC3(C2)CN(C(=O)c2cc(O)ccc2F)C3)n(-c2ccccc2C(F)(F)F)n1 [Compound 366, (2-fluoro-5-hydroxyphenyl)(6-{3-methyl-1-[o-(trifluoromethyl)phenyl]-5-pyrazolyl}-2-aza-2-spiro[3.3]heptyl)methanone]
32 | 500 to 1000 nM | Cc1cc(C2CC3(C2)CN(C(=O)c2c(F)ccc(O)c2C)C3)n(-c2ccccc2C)n1 [Compound 370]
33 | 50 to 150 nM | Cc1cc(C2CC3(C2)CN(C(=O)c2cc(O)c(C)cc2F)C3)n(-c2ccccc2C)n1 [Compound 371, (2-fluoro-5-hydroxy-4-tolyl){6-[3-methyl-1-(o-tolyl)-5-pyrazolyl]-2-aza-2-spiro[3.3]heptyl}methanone]
34 | 150 to 500 nM | Cc1ccccc1-c1c(C)cnn1C1CC2(C1)CN(C(=O)c1cc(O)ccc1F)C2 [Compound 373, (2-fluoro-5-hydroxyphenyl){6-[4-methyl-5-(o-tolyl)-1-pyrazolyl]-2-aza-2-spiro[3.3]heptyl}methanone]

Same assay, conditions: Method 14: Reaction Biology MAGL enzyme, 6 nM; read-out: Potency (MAGL inhibition)

Row | IC50 | SMILES
35 | > 10000 nM | Cc1cc(C2CC3(C2)CN(C(=O)c2cc4c(cc2F)CCO4)C3)n(-c2ccccc2C)n1 [Compound 368]

Same assay, conditions: Methods 1, 2, 3; read-out: MAGL Potency (Detection Method)

Row | IC50 | SMILES
36 | < 50 nM | Cc1cc(C2CC3(C2)CN(C(=O)c2cc(O)c(F)cc2F)C3)n(-c2ccccc2C)n1 [Compound 126, (2,4-difluoro-5-hydroxyphenyl)(6-(3-methyl-1-(o-tolyl)-1H-pyrazol-5-yl)-2-azaspiro[3.3]heptan-2-yl)methanone]

Same assay, conditions: Methods 1, 2; read-out: MAGL Potency (Detection Method)

Row | IC50 | SMILES
37 | < 50 nM | Cc1cc(C2CC3(C2)CN(C(=O)c2cc(O)ccc2C#N)C3)n(-c2ccccc2C)n1 [Compound 128, 4-hydroxy-2-({6-[3-methyl-1-(o-tolyl)-5-pyrazolyl]-2-aza-2-spiro[3.3]heptyl}carbonyl)benzonitrile]

Same assay, conditions: Methods 2, 3; read-out: MAGL Potency (Detection Method)

Row | IC50 | SMILES
38 | 50 to 150 nM | Cc1ccccc1N(C)C(=O)C1CC2(C1)CN(C(=O)c1cc(O)ccc1F)C2 [Compound 185, 2-(2-Fluoro-5-hydroxybenzoyl)-N-Methyl-N-(o-tolyl)-2-azaspiro [3.3]heptane-6-carboxamide]
39 | 1000 to 5100 nM | CCOc1cc(F)ccc1C(=O)N1CC2(CC(C(=O)N(C)c3ccccc3C)C2)C1 [Compound 187, 2-(2-Ethoxy-4-fluorobenzoyl)-N-Methyl-N-(o-tolyl)-2-azaspiro [3.3] heptane-6-carboxamide]

Same assay, conditions: read-out: Potency (MAGL inhibition)

Row | IC50 | SMILES
40 | > 10000 nM | Cc1cc(C2CC3(C2)CN(Cc2cc(O)ccc2F)C3)n(-c2ccccc2C)n1 [Compound 150]
